Where two headings read alike, the source gives them in different places.
How the values were obtained:
[1] = In Vitro Microsome Stability Assay (monkey); assay type: in vitro ADME
Summary of the method: (§1)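 Species liver microsomes in potassium phosphate buffer were preincubated at 37 °C for 3–5 min with test compound (added from 0.25 mM DMSO stock), then started with NADPH. Samples at 0 and 30 min were quenched with acetonitrile containing internal standard and analysed by LC-MS/MS; % remaining at 30 min used analyte/IS AUC ratios relative to t=0.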

[2] = In Vitro Microsome Stability Assay (mouse); assay type: in vitro ADME
Summary of the method: as §1

[3] = In Vitro Microsome Stability Assay (rat); assay type: in vitro ADME
Summary of the method: as §1

[4] = tested on: multiple myeloma cell line U266B1; assay: U266 Cell Viability Assay; assay type: cell-based, human; conditions: Homo sapiens, U-266, 48 hr
Summary of the method: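 U266B1 myeloma cells in RPMI 1640 with 10% FBS were treated with compound dilutions for 48 h at 37° C, 5% CO2. Viability was read as CellTiter-Glo luminescence. Data for structures drawn without stereochemistry refer to stereoisomer mixtures.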

[5] = tested on: full length TNFα (amino acids 1-233) fused to Gaussia Luciferase; assay: Dox Induced TNFα-FL-Gluc Assay; assay type: cell-based; conditions: 24 hr, read-out: 24 hr Dox Inducible TNFaFLGluc 293FRT/TO: Mean IC50
Summary of the method: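 Stable Flp-In 293 T-REx line expressing doxycycline-inducible full-length TNFα fused to Gaussia luciferase; cells plated the day before, then treated with compound dilutions in doxycycline-containing medium at 37° C, 5% CO2. Unspecified stereocentres mean stereoisomer mixtures were tested.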

[6] = tested on: PD1 signal sequence plus 10 amino acids fused to Gaussia Luciferase (PD1-ss+10aa/Gaussia Luciferase); assay: Dox Induced PD1-ss-Gluc Assay; assay type: cell-based; conditions: 24 hr, read-out: 24 hr Dox Inducible PD1ssGluc 293FRT/TO: Mean IC50
Summary of the method: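 Stable Flp-In 293 T-REx line expressing the fusion under tetracycline-inducible control, plated the day before assay. Compound dilutions added with doxycycline and incubated at 37 °C, 5% CO2; unspecified stereocentres mean data refer to stereoisomer mixtures.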

[7] = tested on: multiple myeloma cell line NCl-H929; assay: H929 Cell Viability Assay; assay type: cell-based, human; conditions: Homo sapiens, NCI-H929, 48 h
Summary of the method: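 NCI-H929 myeloma cells in RPMI 1640 with 10% FBS were treated with compound dilutions for 48 h at 37 °C, and viability was then read by CellTiter-Glo luminescence. Compounds drawn without stereochemistry were tested as stereoisomer mixtures.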

[8] = In Vitro Microsome Stability Assay (human); assay type: in vitro ADME
Summary of the method: as §1

[9] = tested on: full length IL-2 (amino acids 1-153) fused to Gaussia Luciferase; assay: Dox Induced IL2-FL-Gluc Assay; assay type: cell-based; conditions: 24 hr, read-out: 24 hr Dox Inducible IL2FLGluc 293FRT/TO: Mean IC50
Summary of the method: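 Flp-In 293 T-REx stable line expressing full-length IL-2 (aa 1-153) with C-terminal Gaussia luciferase fusion under doxycycline-inducible control. Cells plated the day before; compound dilutions added in DMSO/media containing doxycycline, incubated at 37° C, 5% CO2.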

[10] = monkey liver microsomes, 30 min w/ NADPH
[11] = mouse liver microsomes, 30 min w/ NADPH
[12] = rat liver microsomes, 30 min w/ NADPH
[13] = human liver microsomes, 30 min w/ NADPH
[14] = U266, read-out: 48 hr U266 Viability Celltiter-Glo: Mean EC50
[15] = H929, read-out: 48 hr H929 Viability Celltiter-Glo: Mean EC50

Liver Microsome Stability-% Left after 30 min w/ NADPH (%) Monkey [1, 10] | Liver Microsome Stability-% Left after 30 min w/ NADPH (%) Mouse [2, 11] | Liver Microsome Stability-% Left after 30 min w/ NADPH (%) Rat [3, 12] | EC50 ([4]; U266, Celltiter-Glo) | IC50 ([5]; Dox inducible, 293FRT/TO cells) | IC50 ([6]; Dox inducible, 293FRT/TO cells) | EC50 ([7]; H929, Celltiter-Glo) | Liver Microsome Stability-% Left after 30 min w/ NADPH (%) Human [8, 13] | IC50 ([9]; Dox inducible, 293FRT/TO cells) | Liver Microsome Stability-% Left after 30 min w/ NADPH (%) Monkey ([1]; monkey, 30 min, NADPH) | Liver Microsome Stability-% Left after 30 min w/ NADPH (%) Mouse ([2]; mouse, 30 min, NADPH) | Liver Microsome Stability-% Left after 30 min w/ NADPH (%) Rat ([3]; rat, 30 min, NADPH) | EC50 [4, 14] | IC50 ([5]; 293FRT/TO) | IC50 ([6]; 293FRT/TO) | EC50 [7, 15] | Liver Microsome Stability-% Left after 30 min w/ NADPH (%) Human ([8]; human, 30 min, NADPH) | IC50 ([9]; 293FRT/TO) | Compound
25.8% | 22.8% | 29.2% | > 25000 nM | 4820 nM | 135 nM | > 25000 nM | 24.0% | 255 nM | – | – | – | – | – | – | – | – | – | COc1cc(F)ccc1C1CN(S(=O)(=O)N2CCCN(CC3CCCCC3)CCCN(S(=O)(=O)c3ccc(N(C)C)cc3)C[C@H](C)C2)C1 [A178, 4-{[(3S)-9-(cyclohexylmethyl)-5-{[3-(4-fluoro-2-methoxyphenyl)azetidin-1-yl]sulfonyl}-3-methyl-1,5,9-triazacyclododecan-1-yl]sulfonyl}-N,N-dimethylaniline]
0.67% | 1.59% | 1.29% | > 25000 nM | > 25000 nM | 926 nM | > 25000 nM | 0.52% | 1120 nM | – | – | – | – | – | – | – | – | – | C[C@@H]1CCN(S(=O)(=O)c2ccc(N(C)C)cc2)CCCN(CC2CCCCC2)CCCN1S(=O)(=O)N1CCc2cc(Cl)ccc2C1 [A148, 4-{[(4 R)-5-[(6-chloro-1,2,3,4-tetrahydroisoquinolin-2-yl)sulfonyl]-9-(cyclohexylmethyl)-4-methyl-1,5,9-triazacyclododecan-1-yl]sulfonyl}-N,N-dimethylaniline]
2.2% | 1.38% | 2.02% | > 25000 nM | 468 nM | 30.3 nM | 2000 nM | 4.6% | 41.3 nM | – | – | – | – | – | – | – | – | – | C[C@H]1CCN(S(=O)(=O)N2CCc3cc(Cl)ccc3C2)CCCN(CC2CCCCC2)CCCN1S(=O)(=O)c1ccc(N(C)C)cc1 [A150, 4-{[(2 S)-5-[(6-chloro-1,2,3,4-tetrahydroisoquinolin-2-yl)sulfonyl]-9-(cyclohexylmethyl)-2-methyl-1,5,9-triazacyclododecan-1-yl]sulfonyl}-N,N-dimethylaniline]
– | – | – | – | – | – | – | – | – | 46.1% | 54.2% | 43.1% | > 25000 nM | 4900 nM | 198 nM | 6710 nM | 43.9% | 391 nM | C[C@H]1CN(S(=O)(=O)c2ccc(N(C)C)cc2)CCCN(CC2CCCCC2)CCCN(S(=O)(=O)N2CCN(c3cccc(F)c3)CC2)C1 [A95, 4-{[(3S)-9-(cyclohexylmethyl)-5-{[4-(3-fluorophenyl)piperazin-1-yl]sulfonyl}-3-methyl-1,5,9-triazacyclododecan-1-yl]sulfonyl}-N,N-dimethylaniline]
38.5% | 42.2% | 36.5% | > 25000 nM | > 25000 nM | 446 nM | > 25000 nM | 31.6% | 698 nM | – | – | – | – | – | – | – | – | – | C[C@H]1CN(S(=O)(=O)c2ccc(N(C)C)cc2)CCCN(C(=O)OCc2ccccc2)CCCN(S(=O)(=O)N2CCc3cc(Cl)ccc3C2)C1 [A103]
73% | 42% | 42.1% | > 25000 nM | > 25000 nM | 1490 nM | > 25000 nM | 25.7% | 1140 nM | – | – | – | – | – | – | – | – | – | C[C@H]1CN(S(=O)(=O)c2cccc(N(C)C)c2)CCCN(CC2CCCCC2)CCCN(S(=O)(=O)N2CCc3cc(Cl)ccc3C2)C1 [A168, 3-{[(3S)-5-[(6-chloro-1,2,3,4-tetrahydroisoquinolin-2-yl)sulfonyl]-9-(cyclohexylmethyl)-3-methyl-1,5,9-triazacyclododecan-1-yl]sulfonyl}-N,N-dimethylaniline]
28.4% | 36.9% | 44.4% | > 25000 nM | 566 nM | 15.8 nM | 1860 nM | 41.7% | 53.3 nM | – | – | – | – | – | – | – | – | – | COc1c(N2CCN(S(=O)(=O)N3CCCN(CC4CCCCC4)CCCN(S(=O)(=O)c4ccc(N(C)C)cc4)C[C@H](C)C3)CC2)ccc(F)c1F [A174, 4-{[(3S)-9-(cyclohexylmethyl)-5-{[4-(3,4-difluoro-2-methoxyphenyl)piperazin-1-yl]sulfonyl}-3-methyl-1,5,9-triazacyclododecan-1-yl]sulfonyl}-N,N-dimethylaniline]
39.2% | 26.1% | 56.3% | > 25000 nM | 625 nM | 21.6 nM | 1240 nM | 9.36% | 48.6 nM | – | – | – | – | – | – | – | – | – | C[C@H]1CN(S(=O)(=O)c2ccc(N(C)C)cc2)CCCN(CC2=CCCCC2)CCCN(S(=O)(=O)N2CCc3cc(Cl)ccc3C2)C1 [A135, 4-{[(3S)-5-[(6-chloro-1,2,3,4-tetrahydroisoquinolin-2-yl)sulfonyl]-9-[(cyclohex-1-en-1-yl)methyl]-3-methyl-1,5,9-triazacyclododecan-1-yl]sulfonyl}-N,N-dimethylaniline]
– | – | – | – | – | – | – | – | – | 40.4% | 40.8% | 51.8% | > 25000 nM | > 25000 nM | 304 nM | > 25000 nM | 44.3% | 519 nM | C[C@H]1CN(S(=O)(=O)c2ccc(N(C)C)cc2)CCCN(CC2CCCCC2)CCCN(S(=O)(=O)N2CCC(Oc3ccccc3)CC2)C1 [A92, 4-{[(3S)-9-(cyclohexylmethyl)-3-methyl-5-[(4-phenoxypiperidin-1-yl)sulfonyl]-1,5,9-triazacyclododecan-1-yl]sulfonyl}-N,N-dimethylaniline]
0.88% | 0.62% | 2.05% | > 25000 nM | 546 nM | 29.6 nM | 421 nM | 1.06% | 68.3 nM | – | – | – | – | – | – | – | – | – | C[C@H]1CN(S(=O)(=O)c2ccc(N(C)C)cc2)CCCN(CC2CCC2)CCCN(S(=O)(=O)N2CCc3cc(Cl)ccc3C2)C1 [A108, 4-{[(3S)-5-[(6-chloro-1,2,3,4-tetrahydroisoquinolin-2-yl)sulfonyl]-9-(cyclobutylmethyl)-3-methyl-1,5,9-triazacyclododecan-1-yl]sulfonyl}-N,N-dimethylaniline]
